This is an account of results in patent US20220242851A1, “CRYSTAL FORM AND SALT OF QUINAZOLINE COMPOUND AND PREPARATION METHOD THEREOF” (SHENZHEN JINRUI FOUNDATION BIOTECH CO., LTD, priority 2019, published 2022).

SMILES strings stand for the structures.

The target in one series is T1, CYP3A4 (Homo sapiens, UniProt P08684).
T1 construct: in the assay of CYP enzyme activity in human liver microsome; from tissue; host or cells: human liver microsome
In words: Inhibition of CYP enzyme activity in human liver microsome, CYP3A4. In kind it is in vitro ADME. The source says:
The results of the compound disclosed herein and the reference compound Poziotinib in the assay of CYP enzyme activity in human liver microsome were shown in the following table (Table 17).
(Liver microsomes are a subcellular fraction often used to study metabolism.)

For another series, the target named is HER2(ErbB2) (Homo sapiens, UniProt P04626). Kind of series: In vitro enzyme activity, HER2 (radiometric, Eurofins). In kind it is biochemical. The note with it: conclusion. How it is done: The purpose of this assay is to detect the in vitro inhibitory activity of compounds on HER1(ErbB1), HER2(ErbB2), and HER4(ErbB4). The enzymes used in this assay are human ErbB 1, ErbB2 and ErbB4. Eurofins Pharma Discovery Service provided the method for activity detection. Steps and method of the assay (96-well plate): A buffer solution of the assay compounds in a dilution of 5-fold (5 μL), polypeptide substrate poly(Glu, Tyr) (4:1) (2.5 μL), ErbB (4-20 ng, 2.5 μL), MnCl2 (50 mM, 1.25 μL), dH2O (3.75 μL), and [γ-^33P]ATP (10 μL) were added, and incubated at 30° C. for 10 minutes. The reaction was terminated by adding 3% phosphoric acid. 10 μL of the sample was taken and transferred to Filtermate A. The filter disc was washed 3 times with 75 mM phosphoric acid and once with methanol. The filter disc was transferred to a sealed plastic bag and the scintillation mixture (4 mL) was added. The intensity of the emitted photon was detected by a scintillation luminescence counter. The CPM (times/min) of the enzyme sample was compared with the CPM of the internal control sample. The level of photon intensity reflected the degree of the tyrosine kinase activity.
Chain of HER2(ErbB2) (P04626 23-1255): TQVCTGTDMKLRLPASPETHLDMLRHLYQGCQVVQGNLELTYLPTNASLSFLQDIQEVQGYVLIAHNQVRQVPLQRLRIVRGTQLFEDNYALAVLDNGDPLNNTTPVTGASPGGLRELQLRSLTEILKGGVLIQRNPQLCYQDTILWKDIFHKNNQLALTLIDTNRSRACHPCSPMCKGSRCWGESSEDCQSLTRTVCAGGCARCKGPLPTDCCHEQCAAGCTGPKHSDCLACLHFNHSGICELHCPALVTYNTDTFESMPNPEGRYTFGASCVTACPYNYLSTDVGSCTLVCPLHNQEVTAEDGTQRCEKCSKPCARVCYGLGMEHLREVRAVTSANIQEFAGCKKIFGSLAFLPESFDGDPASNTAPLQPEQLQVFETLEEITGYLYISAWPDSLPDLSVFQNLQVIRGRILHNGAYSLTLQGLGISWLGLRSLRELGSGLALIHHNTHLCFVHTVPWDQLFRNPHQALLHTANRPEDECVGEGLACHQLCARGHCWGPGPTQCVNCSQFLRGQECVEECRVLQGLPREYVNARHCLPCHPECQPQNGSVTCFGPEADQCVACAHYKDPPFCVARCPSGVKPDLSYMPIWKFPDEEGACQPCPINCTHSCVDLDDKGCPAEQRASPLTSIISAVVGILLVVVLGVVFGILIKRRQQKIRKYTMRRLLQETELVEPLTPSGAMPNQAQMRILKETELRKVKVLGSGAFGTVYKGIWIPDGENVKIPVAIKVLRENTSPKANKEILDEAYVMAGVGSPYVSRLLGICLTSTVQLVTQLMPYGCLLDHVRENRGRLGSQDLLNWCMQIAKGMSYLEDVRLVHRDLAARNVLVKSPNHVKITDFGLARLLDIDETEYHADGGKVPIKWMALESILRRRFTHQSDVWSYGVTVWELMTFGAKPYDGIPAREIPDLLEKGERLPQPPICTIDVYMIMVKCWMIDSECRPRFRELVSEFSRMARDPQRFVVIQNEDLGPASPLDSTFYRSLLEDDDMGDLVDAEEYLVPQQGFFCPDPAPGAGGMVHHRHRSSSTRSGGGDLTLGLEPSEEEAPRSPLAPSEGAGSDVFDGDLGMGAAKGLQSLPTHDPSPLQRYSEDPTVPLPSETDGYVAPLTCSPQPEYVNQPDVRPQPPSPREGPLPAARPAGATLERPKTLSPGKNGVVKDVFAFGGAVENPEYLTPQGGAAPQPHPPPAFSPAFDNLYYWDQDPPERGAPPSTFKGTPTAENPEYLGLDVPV

T1 sequence (P08684 whole entry): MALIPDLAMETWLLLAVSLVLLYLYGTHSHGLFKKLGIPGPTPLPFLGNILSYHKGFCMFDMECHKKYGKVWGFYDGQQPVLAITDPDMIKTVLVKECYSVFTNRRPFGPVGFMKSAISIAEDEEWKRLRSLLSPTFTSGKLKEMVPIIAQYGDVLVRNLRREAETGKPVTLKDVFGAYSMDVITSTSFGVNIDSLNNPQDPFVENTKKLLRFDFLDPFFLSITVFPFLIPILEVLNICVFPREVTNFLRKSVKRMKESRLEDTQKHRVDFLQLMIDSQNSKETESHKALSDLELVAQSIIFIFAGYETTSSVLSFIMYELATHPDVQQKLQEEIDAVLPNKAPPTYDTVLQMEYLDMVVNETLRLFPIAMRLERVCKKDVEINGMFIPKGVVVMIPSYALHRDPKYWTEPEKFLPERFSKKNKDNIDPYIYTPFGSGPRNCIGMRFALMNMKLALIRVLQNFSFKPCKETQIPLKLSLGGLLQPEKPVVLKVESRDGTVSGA

`C=CC(=O)N1[C@@H]2CC[C@H]1C[C@H](Nc1cc3c(Nc4ccc(Cl)c(Cl)c4F)ncnc3cc1OC)C2` [Compound of formula (I)]: on CYP3A4, the “inhibitory activity on CYP3A4 (in words)” value is “no inhibitory activity”. Besides, the “inhibitory activity on HER2 (in words)” value at HER2(ErbB2) is on record as “significant inhibitory activity”.
